The text below walks through data of PMC12771125, “Compounds Reducing Human Sperm Motility as Potential Nonhormonal Contraceptives Identified Using a High-Throughput Phenotypic Screening Platform” (ACS Omega, 2025).

As a reminder, the solubility is how much of the substance goes into solution per volume. A high value points to a readily soluble substance.

In brackets after ≈: the same amount, converted by molar mass. Like-named read-outs stand apart in the source and are kept apart here. Bounds are passed on as bounds.

One data set concerns human sperm. The data set can be described thus: Reduction of sperm motility (RSM) high-throughput phenotypic assay. Type of data set: cell-based. The note with it: for EC50: Homo sapiens. The method, then:
Using our previously established phenotypic human sperm motility screening platform, we screened a large subset (62,621 compounds) of one of our in-house diversity libraries (National Phenotypic Screening Centre (NPSC) Diversity Set) (Figure A,B). Briefly, human sperm are collected, isolated from semen, distributed into 384-well plates with test compounds, time-lapse images of sperm movement are recorded using a high-content imager, and progressive motility parameters are calculated using custom data analysis software. Sperm motility is complicated, and the mechanisms underpinning its regulation are not fully understood. Progressive motility, which is a measurement of the movement of forward progression of sperm, is most closely linked to sperm quality, and the percentage of progressively motile sperm compared to control is therefore the parameter utilized during the work described in this paper. […]
We used an HTS screening platform to assess the motility of live human spermatozoa. The platform and its development are described in detail in Gruber et al. , and summarized below in brief. The platform was used to screen compound libraries specifically focusing on reduction in motility. Interesting compounds were examined in further detail as possible starting points for a medicinal chemistry program. The experimental design is illustrated in Figure .
Donors were local to the Dundee area, over the age of 18, and had no known fertility problems and normal sperm concentration, motility and semen characteristics according to WHO 2021 criteria. Special category personal data for donors, such as ethnic origin, was not recorded in accordance with ethical approval and UK GDPR. Samples were obtained by masturbation, after sexual abstinence of 2–5 days, and delivered to the research laboratory within one h of production. Samples were allowed to liquefy at 37 °C for 15–30 min prior to preparation by discontinuous density gradient centrifugation (DGC). […] A minimum of 3 prepared donor samples were routinely pooled to reduce donor-to-donor variability for primary screening assays. Pooled samples were incubated for 3 h at 37 °C under noncapacitating conditions.
In brief, screening batches of cells were transferred to a robotic platform (HighRes Biosolutions Inc.) and maintained during the screen at 37 °C at 5% CO2. Assay-ready 384-well plates containing compounds were prepared prior to the screen and filled with approximately 10,000 spermatozoa (20 μL) per well using a liquid handling system (MultiDrop Combi; ThermoFisher). These plates were incubated for 10 min prior to imaging. The HTS system utilized a Yokogawa CV7000 Cell Voyager high-throughput microscope to record time-lapse images from 2 positions in each well. An adaptation of a tracking algorithm, Trackpy v0.4.1 was utilized to track individual spermatozoa within each well and obtain kinematic parameters. Within the compound-test plates, DMSO was used as the vehicle control.
All steps were performed as previously described. , In summary, data from every compound well were normalized to those from in-plate DMSO controls (wells containing the same amount of DMSO as compound wells). Two positions were recorded in every well, and the average of those positions was used for calculating % of control (median value/DMSO median) × 100. Each plate contained 16 DMSO control wells. Median curvilinear velocity (VCL) was used as the primary readout for the NPSC Diversity Set screened at 6 μM, and percentage progressive motility (PM) was used for all other libraries screened. Hits from the primary screening were chosen based on the % change compared to the control. In these experiments, an RSM of ≥20% compared to negative controls (DMSO) was chosen as a cutoff for potential progression.
In a screening program of this scale, a significant number of compounds are likely to have a negative effect on sperm motility, but a number will show general toxicity. […]

Another data set has as its system HepG2 cells. The data set can be described thus: HepG2 cytotoxicity assay (resazurin, 72 h). The class given is cell-based, human. The note with it: Homo sapiens, HepG2, 72 h; read-out: HepG2 pEC50 (converted). An excerpt: Our overarching aims for investigating our chemical series and deciding which ones had the potential for further progression were to achieve adequate potency in our motility assay, suitable solubility, and minimal cytotoxicity in HepG2 cells. This third point was often the most challenging, as multiple series had cytotoxicity in HepG2 cells. This observation is perhaps not surprising; many potential targets in sperm cells can also be found in somatic cells. Our cytotoxicity assay is run with an incubation time of 72 h, to give time for gross cytotoxic effects to become apparent.
Compound dilution curves were plated directly using a Labcyte Echo 550 acoustic dispenser (125 nL) in 384-well white clear-bottom plates (Greiner). HepG2 cells (ATCCHepG2 HB-8065) were cultured in minimum essential medium (supplemented with glutamax) with 10% FCS and plated (25 μL) using a WellMate dispenser ([…]) and incubated for 72 h. Doxorubicin was used as a positive control drug. Resazurin was then added to each well at a final concentration of 45 μM, and fluorescence was measured using a PHERAstar LS (BMG Labtech) after 4 h of further incubation (excitation of 528 nm and emission of 590 nm). Raw data were normalized to controls and expressed as % growth.
Figure S2: Concentration-response curves from high throughput HepG2 viability assay. Each compound was tested in duplicate and the curves of each replicate are shown. The reported values in the tables are an average of the 2 pEC50 values obtained. […]
determine 0% effect, positive control used to determine 100% effect).
Hit compounds 1a, 6b and 7a were repurchased from commercial suppliers including enamine and […]
For orientation: Alamar Blue is a resazurin reagent that responds to reducing activity.

A short description of another data set: Aqueous solubility. The class given is physicochemical.
The mark [1] stands for this setting: 10 min, 10 min incubation, reduction of progressive sperm motility relative to control, reported <X (neg. log of top concentration) if largest reduction <70%, read-out: RSM pEC50 10 mins (converted).
The mark [2] stands for this setting: 3 h incubation, reduction of progressive sperm motility relative to control, reported <X if largest reduction <70%, read-out: RSM pEC50 3 hrs (converted).
[3] abbreviates: 6 h incubation, reduction of progressive sperm motility relative to control, reported <X if largest reduction <70%, read-out: RSM pEC50 6 hrs (converted).

Turning to “2-(Phenoxymethyl)-N-(4-(pyridin-2-yl)thiazol-2-yl)benzamide [Compound 3a]”, in the data set on human sperm (10 min incubation, reduction of progressive sperm motility relative to control, reported <X (neg. log of top concentration) if largest reduction <70%), the “RSM pEC50 10 mins” value is less than 4.5. The “RSM pEC50 3 hrs” value with human sperm (3 h incubation, reduction of progressive sperm motility relative to control, reported <X if largest reduction <70%) amounted to 5.0. Also, the “RSM pEC50 6 hrs” value with human sperm (6 h incubation, reduction of progressive sperm motility relative to control, reported <X if largest reduction <70%) was found to be 5.3.
For the molecule `O=C(Nc1ccc([N+](=O)[O-])cc1Cl)c1cc(Cl)ccc1O` [Compound 1a, Niclosamide, reference compound], in the data set with human sperm, the “difference between pEC50 in the sperm motility assay and pEC50 in the HepG2 cytotoxicity assay” value was 0.5 log units. The results for the EC50 in the data set on human sperm (setting [1]) and with HepG2 cells were 1 µM and 3.16 µM, respectively. The molecule further displayed a solubility in “Aqueous solubility” of 4.5 µM (≈ 1.47 µg/mL).
Take `NCCN(C(=O)c1ccc(Cl)cc1Cl)c1ccc(OCc2ccc(Cl)cc2)cc1` [Compound 1b, N-(2-Aminoethyl)-2,4-dichloro-N-(4-((4-chlorobenzyl)oxy)phenyl)benzamide]: the EC50 is 12.6 µM in the data set with human sperm (setting [1]), 20 µM in the data set on human sperm (setting [2]), 10 µM in the data set on human sperm (setting [3]) and 5.01 µM with HepG2 cells. This molecule returned a solubility in “Aqueous solubility” of 53 µM (≈ 23.8 µg/mL).
With `Cc1cc(NC(=O)c2cc(Cl)ccc2O)ccc1C#N` [Compound 1c], the EC50 in the data set on human sperm (setting [1]) was 3.98 µM; with HepG2 cells, 25.1 µM. The molecule further registered a solubility in “Aqueous solubility” of 60 µM (≈ 17.2 µg/mL).
The matching figures for `N#Cc1ccc(NC(=O)c2cc(Cl)ccc2O)cc1F` [Compound 1d]: 2.51 µM, 6.31 µM and 35 µM (≈ 10.2 µg/mL).
As to `N#Cc1ccc(NC(=O)c2ccccc2)cc1Cl` [Compound 1i], the EC50 was more than 20 µM with human sperm (setting [1]) and 39.8 µM in the data set on HepG2 cells.
On to `NCCN(C(=O)c1ccc(F)cc1Cl)c1ccc(Cl)cc1` [Compound 1m], for which the EC50 in the data set with human sperm (setting [1]) was more than 31.6 µM; with human sperm (setting [2]), more than 31.6 µM; in the data set with human sperm (setting [3]) it was more than 31.6 µM; with HepG2 cells, 63.1 µM.
On to `O=C(Nc1nc(C2CC2)cs1)Nc1ccc(F)cc1F` [Compound 3h], for which the EC50 with human sperm (setting [1]) was more than 31.6 µM; with human sperm (setting [2]) it was more than 31.6 µM; in the data set on human sperm (setting [3]) it was more than 31.6 µM; with HepG2 cells, 63.1 µM.
Consider `O=C(Nc1nc(-c2ccccn2)co1)Nc1ccc(F)cc1F` [Compound 3n], for which the EC50 in the data set with human sperm (setting [1]) was more than 31.6 µM; with human sperm (setting [2]), more than 31.6 µM; in the data set with human sperm (setting [3]), more than 31.6 µM; in the data set on HepG2 cells it was more than 100 µM.
Regarding `CCN(CC)Cc1cc(Nc2ccnc3cc(Cl)ccc23)ccc1O` [Compound 5a, 4-((7-Chloroquinolin-4-yl)amino)-2-((diethylamino)methyl)phenol, reference compound], the EC50 in the data set with human sperm (setting [1]) is more than 31.6 µM; in the data set with human sperm (setting [2]), more than 31.6 µM; in the data set on human sperm (setting [3]) it was 0.501 µM; with HepG2 cells it was 20 µM.
On to `Oc1ccc(Nc2ccnc3cc(Cl)ccc23)cc1CN1CCCC1` [Compound 5b], for which the EC50 was more than 31.6 µM in the data set with human sperm (setting [1]), more than 31.6 µM in the data set on human sperm (setting [2]), 0.2 µM in the data set with human sperm (setting [3]) and 12.6 µM in the data set on HepG2 cells.
Regarding `Oc1ccc(Nc2ccnc3cc(Cl)ccc23)cc1CN1CCNCC1` [Compound 5c], the EC50 in the data set on human sperm (setting [1]) is more than 31.6 µM; in the data set with human sperm (setting [2]) it was more than 31.6 µM; with human sperm (setting [3]), 0.794 µM; in the data set on HepG2 cells it was 12.6 µM.
Take `Fc1ccc(Nc2ccnc3cc(Cl)ccc23)cc1CN1CCCC1` [Compound 5h]: the EC50 in the data set with human sperm (setting [1]), in the data set on human sperm (setting [2]) and with human sperm (setting [3]) was more than 31.6 µM in each case.
Consider `Cc1cc(C)nc(-n2nc(C)cc2Nc2ccccc2)n1` [Compound 6a, 1-(4,6-dimethylpyrimidin-2-yl)-3-methyl-N-phenyl-1H-pyrazol-5-amine], for which the figures for the EC50 in the data set with human sperm (setting [1]), in the data set with human sperm (setting [2]) and in the data set with human sperm (setting [3]) were more than 31.6 µM, 5.01 µM and 1.58 µM, respectively.
As for `O=C1COC2(CCN(Cc3ccc(F)cc3)CC2)CN1` [Compound 8a, 9-(4-Fluorobenzyl)-1-oxa-4,9-diazaspiro[5.5]undecan-3-one], the EC50 was 12.6 µM in the data set on human sperm (setting [1]), 2 µM with human sperm (setting [2]), 0.794 µM in the data set on human sperm (setting [3]) and more than 100 µM in the data set on HepG2 cells.
Regarding `O=C1COC2(CCN(Cc3ccncc3)CC2)CN1` [Compound 8b], the results for the EC50 in the data set on human sperm (setting [1]), in the data set on human sperm (setting [2]) and in the data set with human sperm (setting [3]) were 15.8 µM, 1.26 µM and 0.501 µM, respectively.
For `O=C1COC2(CCN(Cc3cccnc3)CC2)CN1` [Compound 8c], the results for the EC50 in the data set on human sperm (setting [1]), in the data set on human sperm (setting [2]) and in the data set with human sperm (setting [3]) were more than 31.6 µM, 6.31 µM and 1.58 µM, respectively.
The matching figures for `O=C1COC2(CCN(Cc3ccsc3)CC2)CN1` [Compound 8d]: more than 31.6 µM, 2 µM and 1 µM.
The matching figures for `O=C1COC2(CCN(Cc3ccoc3)CC2)CN1` [Compound 8e]: more than 31.6 µM, 3.16 µM and 1.26 µM.
For the molecule `O=C1COC2(CCN(Cc3ccco3)CC2)CN1` [Compound 8f], the EC50 with human sperm (setting [1]) was more than 31.6 µM; with human sperm (setting [2]), more than 31.6 µM; with human sperm (setting [3]), 25.1 µM.
Take `Cc1ccc(CN2CCC3(CC2)CNC(=O)CO3)cc1` [Compound 8g]: the EC50 with human sperm (setting [1]), with human sperm (setting [2]) and with human sperm (setting [3]) was more than 31.6 µM throughout.
For the molecule `CN1CC2(CCN(Cc3ccc(F)cc3)CC2)OCC1=O` [Compound 8h], the EC50 in the data set with human sperm (setting [1]) was more than 31.6 µM; with human sperm (setting [2]) it was more than 31.6 µM; in the data set with human sperm (setting [3]), more than 31.6 µM; in the data set on HepG2 cells it was more than 100 µM.
Take `NC(=O)N1CCC2(CCN(Cc3cccc(F)c3)CC2)CC1` [Compound 9a, 9-(3-Fluorobenzyl)-3,9-diazaspiro[5.5]undecane-3-carboxamide]: the EC50 with human sperm (setting [1]) was more than 31.6 µM; in the data set on human sperm (setting [2]) it was 6.31 µM; with human sperm (setting [3]) it was 3.98 µM; in the data set on HepG2 cells it was more than 100 µM.
In the case of `CC(=O)N1CCC2(CCN(Cc3cccc(F)c3)CC2)CC1` [Compound 9b], the EC50 in the data set with human sperm (setting [1]), in the data set on human sperm (setting [2]) and in the data set with human sperm (setting [3]) was more than 31.6 µM each time.
As to `CNC(=O)N1CCC2(CCN(Cc3cccc(F)c3)CC2)CC1` [Compound 9c], the EC50 in the data set on human sperm (setting [1]), in the data set with human sperm (setting [2]) and in the data set on human sperm (setting [3]) was more than 31.6 µM in each case.
Regarding `Fc1cccc(CN2CCC3(CCNCC3)CC2)c1` [Compound 9d], the EC50 in the data set on human sperm (setting [1]) is more than 31.6 µM; in the data set on human sperm (setting [2]), more than 31.6 µM; in the data set with human sperm (setting [3]), more than 31.6 µM; in the data set with HepG2 cells, 63.1 µM.
For the molecule `NC(=O)N1CCC2(CCN(Cc3ccc(F)cc3)CC2)CC1` [Compound 9e], the EC50 in the data set on human sperm (setting [1]), in the data set with human sperm (setting [2]) and with human sperm (setting [3]) was more than 31.6 µM each time.
